Measured values from patent US20260023068A1, “USE OF A FBXO42 SPECIFIC INHIBITOR IN TREATING NOTCH SIGNALING-DEPENDENT DISEASE” (WESTLAKE UNIVERSITY, priority 2022, published 2026).

Assays:
[1] = tested on: Notch target genes HES1, HES5 and c-MYC; assay: qPCR of Notch target genes in HEK293T cells; type: cell-based, human; conditions: mRNA, qPCR (FIG. 4O)
JURKAT and HSB2 cells = assay: Soft agar colony formation assay (anchorage-independent growth); type: cell-based, human; conditions: JURKAT and HSB2, soft agar colony formation (FIG. 12O-R)
Experimental: (§1) FBXO42-KO cells were rescued with WT FBXO42 or F-box deletion mutant and were used in the following studies. (A-C) The mRNA levels of Notch target genes in the treated HEK293T (A), JURKAT (B) and HSB2 (C) cells were determined by qPCR. (D-G) The invasion abilities of the treated JURKAT (D) and HSB2 (F) cells were evaluated using a 3D culture system with Matrigel. Scale bars, 50 μm. The respective average diameter of the spheres in D and F was summarized, respectively (E and G). (H-K) Anchorage-independent growth of the rescued JURKAT (H) and HSB2 (J) cells was measured using a soft agar colony formation assay. The number of colonies in H and J was counted and summarized, respectively (I and K). (L) JURKAT and HSB2 cells were treated with MLN4924 in a concentration-gradient manner for 36 h and then evaluated for the cell viability using cell counting kit-8 assay. (M and N) The expression of Notch target genes in MLN4924-treated JURKAT (M) and HSB2 (N) cells were determined by qPCR. (O-R) Anchorage-independent growth of MLN4924-treated JURKAT (0) and HSB2 (Q) cells was measured using soft agar colony formation assays. The number of colonies was counted and summarized (P and R). (A-R, n=3) The data are shown as the mean±SEM from the independent experiments. P values were calculated using one-way ANOVA for multiple comparisons or two-tailed Student's t-tests. *P<0.05, ** P<0.01, *** P<0.001.

JURKAT xenograft = type: in vivo; conditions: 30 mg/kg subcutaneously twice daily for 21 days, BALB/c nude mice (FIG. 13S-V)
Experimental: (A-H) Xenograft tumor growth studies were performed with WT or FBXO42-KO JURKAT (A-D) and HSB2 (E-H) cells. Mice were euthanized 4 weeks after tumor cell injection. The tumors were excised, photographed, and weighed. The volumes (B and F) and weights (C and G) of the tumors were measured, respectively. The mRNA levels of Notch target genes in tumors were determined by qPCR, respectively (D and H). (I-K) In vivo leukemia mouse model was established by injecting WT and FBXO42-KO JURKAT cells carrying GFP into NSG mice intravenously. The percentage of GFP^+ leukemia cells in peripheral blood was measured weekly by flow cytometry analysis (I) and summarized (K). […] (L-O) Spleens in mice from different groups were excised, a representative image is shown (L), and the spleen weight was measured (M). Tumor cell invasion was evaluated by measuring GFP intensity by fluorescence microscopy (N) and hemoxylin and eosin staining (O). […] The volumes (S) and weights (T) of the tumors and mouse weight (U) were measured. (A-O, S-V, n=5, P-R, n=10) Quantitative data are presented as mean±SEM. P values were calculated using two-tailed Student's t-tests. *P<0.05, **P<0.01, NS, not significant.
For the evaluation of MLN4924 efficacy in vivo, 6- to 8-week-old female BALB/c nude mice were inoculated with 5×10^6 JURKAT cells subcutaneously in the right flank, and tumor growth was monitored with caliper measurements. […]

[2] = tested on: Notch target genes in JURKAT and HSB2 cells; assay: qPCR of Notch target genes in leukemia cells; type: cell-based, human; conditions: JURKAT and HSB2, qPCR (FIGS. 12M and 12N)
Experimental: as §1, with “P<0.001. […]” for “P<0.001.”

Structure (SMILES): NS(=O)(=O)OC[C@@H]1C[C@@H](n2ccc3c(N[C@H]4CCc5ccccc54)ncnc32)C[C@@H]1O [MLN4924]
- expression of Notch target genes HES1, HES5 and c-MYC [1]: suppressed
- anchorage-independent growth of leukemia cells (JURKAT and HSB2 cells): diminished
- leukemia burden in vivo (tumor growth rate) (JURKAT xenograft): reduced
- Notch target gene expression of leukemia cells [2]: diminished
